The assay relates to vasopressin V2. The assay is described as follows: Vasopressin Antidiuretic (V2) Response in Conscious Rats with Free Access to Water Drinking Before But Not During the Experiment. In kind it is in vivo, rat (Sprague-Dawley). The settings on record: N=2. The text has this:
Vasopressin Antidiuretic (V2) Response in Conscious Rats with Free Access to Water Drinking Before But Not During the Experiment Male or female normotensive Sprague-Dawley rats (Charles River Laboratories, Inc., Kingston, N.Y.) of 400-450 g of body weight were supplied with Laboratory Rodent Feed #5001 (PMI Feeds, Inc., Richmond, Ind.) and water ad libitum. On the day of test, rats were placed individually into metabolic cages equipped with stainless steel screens (to separate the feces from the urine) and funnels for collection of urine. Compounds, vehicle, or reference agent was given at various oral doses. During the test, rats were provided with no water or food. After dosing, urine was collected in graduated cylinders for four hours. Urine volume was measured. Urinary osmolality was determined using a Fiske One-Ten Osmometer (Fiske Associates, Norwood, Mass. 02062). An aliquot of each urine collection was analyzed for Na^+,K^+ and Cl^- using ion specific electrodes a in Beckman E3 (Electrolyte 3) analyzer. The vehicle used for testing compounds was 20% dimethylsulfoxide (DMSO) in 2.5% preboiled starch. Compounds were dissolved in DMSO and then diluted in 2.5% corn starch (final concentration of DMSO was 20%). All rats were orally dosed with this mixture at […], by gavage.

In the case of `O=C(Nc1ccc(C(=O)N2Cc3ccccc3Oc3ccccc32)c(Cl)c1)c1ccccc1-c1ccccc1` [Example 47, N-[4-(Dibenz[b,f][1,4]oxazepin-10(11H)-ylcarbonyl)-3-chlorophenyl][1,1'biphenyl]-2-carboxamide], where the note is “oral 10 mg/kg”, the Osmolality came to 394 MOsm/kg and the “Urine Volume” value is listed as 22.0 ml/4 hrs.

In the case of `O=C(Nc1ccc(C(=O)N2Cc3cccnc3Oc3ccccc32)cn1)c1ccccc1-c1ccccc1` [Example 66, N-[5-(Pyrido[2,3-b][1,5]benzoxazepin-6(5H)-ylcarbonyl)-2-pyridinyl][1,1'biphenyl]-2-carboxamide], where the note is “oral 10 mg/kg”, the Osmolality was determined as 442 MOsm/kg and the “Urine Volume” value came to 17.0 ml/4 hrs.

In the case of `O=C(Nc1ccc(C(=O)N2Cc3cccnc3Oc3ccccc32)c(Cl)c1)c1ccccc1-c1ccccc1` [Example 67, N-[4-(Pyrido[2,3-b][1,5]benzoxazepin-6(5H)-ylcarbonyl)-3-chlorophenyl][1,1'-biphenyl]-2-carboxamide], where the note is “oral 10 mg/kg”, the Osmolality was 402 MOsm/kg and the “Urine Volume” value was found to be 21.5 ml/4 hrs.

On to `O=C(Nc1ccc(C(=O)N2Cc3cccnc3Nc3ccccc32)cc1)c1ccccc1-c1ccccc1` [Example 133, N-[4-(6,11-Dihydropyrido[2,3-b][1,5]benzodiazepin-6(5H)-ylcarbonyl)-phenyl][1.1'-biphenyl]-2-carboxamide], for which, under “oral 10 mg/kg”, the Osmolality turned out to be 234 MOsm/kg and the “Urine Volume” value is reported as 27.5 ml/4 hrs.

Regarding `O=C(Nc1ccc(C(=O)N2Cc3cccnc3Nc3ccccc32)c(Cl)c1)c1ccccc1-c1ccccc1` [Example 134, N-[4-(6,11-Dihydropyrido[2,3-b][1,5]benzodiazepin-6(5H)-ylcarbonyl)-3-chlorophenyl][1,1'-biphenyl]-2-carboxamide], the Osmolality came to 596 MOsm/kg (oral 1 mg/kg), 396 MOsm/kg (oral 3 mg/kg) and 333 MOsm/kg (oral 10 mg/kg). Also, the “Urine Volume” value (oral 1 mg/kg) is given as 18.2 ml/4 hrs, the “Urine Volume” value (oral 3 mg/kg) is given as 28 ml/4 hrs and the “Urine Volume” value (oral 10 mg/kg) was found to be 40.5 ml/4 hrs.

For `Cl.O=C(Nc1ccc(C(=O)N2Cc3cccnc3Nc3ccccc32)cc1)c1ccccc1-c1ccccc1` [Example 135, N-[4-(6,11-Dihydropyrido[2,3-b][1,5]benzodiazepin-6(5H)-ylcarbonyl)-phenyl][1,1'-biphenyl]-2-carboxamide, hydrochloride], the Osmolality is 526 MOsm/kg (oral 1 mg/kg), 391 MOsm/kg (oral 3 mg/kg) and 284 MOsm/kg (oral 10 mg/kg). In addition, the “Urine Volume” value runs as follows: (oral 1 mg/kg) 19.5 ml/4 hrs; (oral 3 mg/kg) 26.8 ml/4 hrs; (oral 10 mg/kg) 39.5 ml/4 hrs.

For `O=C(Nc1ccc(C(=O)N2Cc3cccnc3Nc3ccccc32)cn1)c1ccccc1-c1ccccc1` [Example 176, N-[5-(6,11-Dihydropyrido[2,3-b][1,5]benzodiazepin-6(5H)-ylcarbonyl)-2-pyridinyl][1,1'-biphenyl]-2-carboxamide], for the setting “oral 10 mg/kg”, the Osmolality is 567 MOsm/kg and the “Urine Volume” value is on record as 12.8 ml/4 hrs.

In the case of `O=C(Nc1ccc(C(=O)N2Cc3ccccc3Nc3ccccc32)c(Cl)c1)c1ccccc1-c1ccccc1` [Example 218, N-[4-[(5,11-Dihydro-10H-dibenz[b,e][1,4]diazepin-10-yl)carbonyl]-3-chlorophenyl][1,1'-biphenyl]-2-carboxamide], where the note is “oral 10 mg/kg”, the Osmolality turned out to be 222 MOsm/kg and the “Urine Volume” value is given as 34 ml/4 hrs.

For the molecule `O=C(Nc1ccc(C(=O)N2Cc3ccccc3Nc3ccccc32)cn1)c1ccccc1-c1ccccc1` [Example 257, N-[5-[(5,11-Dihydro-10H-dibenz[b,e][1,4]diazepin-10-yl)carbonyl]-2-pyridinyl][1,1'-biphenyl]-2-carboxamide], for the setting “oral 10 mg/kg”, the Osmolality is reported as 317 MOsm/kg and the “Urine Volume” value came to 22.5 ml/4 hrs.

On to `O=C(Nc1ccc(C(=O)N2Cc3ccccc3Cc3ccccc32)cc1)c1ccccc1-c1ccccc1` [Example 301, N-[4-[(6,11-Dihydro-5H-dibenz[b,e]azepin-5-yl)carbonyl]-phenyl][1,1'-biphenyl]-2-carboxamide], for which, under “oral 10 mg/kg”, the Osmolality came to 363 MOsm/kg and the “Urine Volume” value worked out at 41.5 ml/4 hrs.

For `O=C(Nc1ccc(C(=O)N2Cc3ccccc3Cc3ccccc32)c(Cl)c1)c1ccccc1-c1ccccc1` [Example 302, N-[4-[(6,11-Dihydro-5H-dibenz[b,e]azepin-5-yl)carbonyl]-3-chlorophenyl][1,1'-biphenyl]-2-carboxamide], where the note is “oral 10 mg/kg”, the Osmolality was 356 MOsm/kg and the “Urine Volume” value was found to be 40 ml/4 hrs.

On to `Cc1ccc(F)cc1C(=O)Nc1ccc(C(=O)N2Cc3ccccc3Nc3ncccc32)cn1` [Example 352, N-[5-[(6,11-Dihydro-5H-pyrido[2,3-b][1,4]benzodiazepin-5-yl)carbonyl]-2-pyridinyl]-5-fluoro-2-methylbenzamide], for which, where the note is “oral 10 mg/kg”, the Osmolality is given as 779 MOsm/kg and the “Urine Volume” value is on record as 9.3 ml/4 hrs.

As to `O=C(Nc1ccc(C(=O)N2CCc3cn[nH]c3-c3ccccc32)cc1)c1ccccc1-c1ccccc1` [Example 396], under “oral 10 mg/kg”, the Osmolality came to 238 MOsm/kg and the “Urine Volume” value is on record as 21.8 ml/4 hrs.

Regarding `O=C(Nc1ccc(C(=O)N2CCc3cn[nH]c3-c3ccccc32)c(Cl)c1)c1ccccc1-c1ccccc1` [Example 397], under “oral 10 mg/kg”, the Osmolality was 288 MOsm/kg and the “Urine Volume” value was found to be 29.8 ml/4 hrs.

Consider `O=C(Nc1ccc(C(=O)N2CCc3cn[nH]c3-c3ccccc32)cn1)c1ccccc1-c1ccccc1` [Example 398, N-[5-[(4,5-Dihydropyrazolo[4,3-d][1]benzazepin-6(1H)-yl)carbonyl]-2-pyridinyl][1,1'-biphenyl]-2-carboxamide], for which, where the note is “oral 10 mg/kg”, the Osmolality is listed as 316 MOsm/kg and the “Urine Volume” value was found to be 20.5 ml/4 hrs.

`Cc1ccc(F)cc1C(=O)Nc1ccc(C(=O)N2CCc3cn[nH]c3-c3ccccc32)cn1` [Example 399, N-[5-[(4,5-Dihydropyrazolo[4,3-d][1]benzazepin-6(1H)-yl)carbonyl]-2-pyridinyl]-5-fluoro-2-methylbenzamide]: under “oral 10 mg/kg”, the Osmolality was 404 MOsm/kg and the “Urine Volume” value worked out at 17.0 ml/4 hrs.

In the case of `Cc1ccc(F)cc1C(=O)Nc1ccc(C(=O)N2Cc3cscc3Nc3ccccc32)cn1` [Example 400], under “oral 10 mg/kg”, the Osmolality is 270 MOsm/kg and the “Urine Volume” value is given as 24.8 ml/4 hrs.

As to `O=C(c1ccc(-c2cccs2)cc1)N1Cc2ccccc2Nc2ccccc21` [Example 404, 5,11-Dihydro-10-[4-(2-thienyl)benzoyl]-10H-dibenz[b,e][1,4]diazepine], for the setting “oral 10 mg/kg”, the Osmolality is listed as 909 MOsm/kg and the “Urine Volume” value is recorded as 6 ml/4 hrs.

Source of the values: patent US5849735A, “Tricyclic benzazepine vasopressin antagonists” (American Cyanamid Company, priority 1995, dated 1998).
